# Measured values published in patent publication US12391751B2, “Antibody against advanced glycation end products and use thereof” (Bloom Technology Corporation, priority 2018, dated 2025).
# What was measured:
# [1] = system: POD-labeled novel monoclonal antibody (SJ-5); experiment: Competitive ELISA of GAL691 and Lys-hydroxy-triosidine against SJ-5 (Example 18); format: binding, mouse; conditions: immobilized Glycer-AGEs-BSA; competitor 0.625 to 10 mg/mL
# Description: A solution of BSA containing AGEs derived from glyceraldehyde (stock solution: 10 mg/mL PBS solution) prepared into 1 μg/mL in a coating solution was added at 100 μL/well to a 96-well microtiter plate (COSTAR) and incubated overnight at 4° C.
# (§1) Each well after the immobilization treatment was washed three times with a washing solution (300 μL), and a blocking solution (200 μL) was added thereto and left at room temperature for 1 hour.
# GAL691 (prepared in Example 16) and Lys-hydroxy-triosidine (prepared in Example 17) were each dissolved in a phosphate buffer solution (0.2 M, pH 7.4) to prepare a 10 mg/mL solution. Sample solutions of 2-fold dilution series from 0.625 to 10 mg/ml (5 points) were further prepared by dilution with a diluting solution. Dilution solutions were also prepared from a blank solution containing no sample in the same way as above. […]
# (§2) Absorbance was measured at a dominant wavelength of 450 nm and a sub-wavelength of 650 nm with a microplate reader (Cytation 5, BioTek Instrument Inc.), and the absorbance at the sub-wavelength was subtracted from the absorbance at the dominant wavelength. Change in the absorbance of GAL691 and Lys-hydroxy-triosidine was indicated as relative values to the absorbance of the blank solution.
# PB-1 antibody = experiment: Competitive ELISA of GAL691 and known AGEs against PB-1 (Example 31); format: binding, mouse; conditions: immobilized A-peak-BSA; competitor 0.04 to 2.5 mM; PB-1 0.1 μg/mL
# Description: Competitive ELISA was conducted using the reagents described in Example 13. A solution of A-peak-BSA prepared into 1 μg/mL in a coating solution was added at 100 μL/well to a 96-well microtiter plate (Costar) and incubated overnight at 4° C.
# as §1
# GAL691 (prepared in Example 16), GLAP (prepared in Example 12), Lys-hydroxy-triosidine (prepared in Example 17), GA-pyridine (prepared in Example 28), GOLD (prepared in Example 29), and Z-Lys were each dissolved in a phosphate buffer solution (0.2 M, pH 7.4) to prepare a 100 mM solution. Then, a 10 mM solution was prepared by dilution 10-fold with a diluting solution containing BSA (1 mg/mL, FUJIFILM Wako Pure Chemical Corp.). Sample solutions of 4-fold dilution series of 0.04, 0.16, 0.63, and 2.5 mM were further prepared with a diluting solution containing a 10% (v/v) phosphate buffer solution and 1 mg/mL BSA. Ten-fold dilutions of a phosphate buffer solution with a diluting solution containing 1 mg/mL BSA were prepared as blank solutions containing no sample in the same way as above. A 0.1 μg/mL solution of the PB-1 antibody was prepared with a diluting solution containing 1 mg/mL BSA.
# Each well treated with the blocking solution was washed three times with a washing solution (300 μL), and the sample solutions of 4-fold dilution series (50 μL each) and the PB-1 antibody dilution solution (50 μL) were added thereto, stirred with a plate mixer for 2 minutes, and then incubated at room temperature for 1 hour.
# After the competitive reaction, each well was washed three times with a washing solution (300 μL), and peroxidase-labeled anti-mouse IgG (H+L) polyclonal antibody, F(ab′)2 fragment (Kirkegaard & Perry Laboratories, Inc.) diluted into 0.05 μg/mL with a diluting solution containing 1 mg/mL BSA was added at 100 μL/well and left standing at room temperature for 1 hour.
# After washing three times with a washing solution (300 μL), a substrate solution (ELISA POD substrate TMB kit (Popular), Nacalai Tesque, Inc.) was added at 100 μL/well and incubated at room temperature for 10 minutes under light shielding. Then, color development was terminated by the addition of 2 N sulfuric acid (50 μL).
# as §2, with “GAL691, GLAP, Lys-hydroxy-triosidine, GA-pyridine, GOLD,” for “GAL691”, “Z-Lys” for “Lys-hydroxy-triosidine”
# [2] = Formation of singlet oxygen through photosensitizing effect, ESR with 4-OH-TEMP (Examples 21, 22); conditions: astaxanthin final concentration 2.5 mM; blue light
# Description: 25 μL of GAL691 or Z-Lys(Z)-OH (10 mM, PBS solution), 12.5 μL of 4-hydroxy-2,2,6,6-tetramethylpiperidine (4-OH-TEMP; Tokyo Chemical Industry Co., Ltd., 400 mM, PBS solution), and 12.5 μL of PBS were mixed in a 0.6 mL microtube (Watson) to prepare a reaction solution. 4-OH-TEMP changes into a nitroxide radical by capturing singlet oxygen and is therefore often utilized in the detection of singlet oxygen using ESR (Nakamura et al., J. Clin. Biochem. Nutr., 2011, 49 (2), 87-95). The reaction solution was irradiated with light at UV 365 nm, blue 470 nm, green 530 nm, or red 630 nm for 1 hour using a portable LED light source (MeCan Imaging Inc.). Then, ESR measurement was performed using a portion (50 μL) of each reaction solution. The ESR measurement was carried out under the same conditions as in Example 10 except for some parameters. The changed measurement parameters are as follows: […]
# In order to quantify the concentration of the formed nitroxide radical, the following analysis was conducted: the spectrum of the observed nitroxide radical was first simulated with SpinFit module in Xepr software (Bruker Corp.) to identify a radical species (g=2.0058, I=1, AN=17.05 G). Then, the spin concentration (μM) of the simulated nitroxide radical was determined with SpinCount module. […]
SMILES,change in absorbance relative to blank (competition for SJ-5 binding) [1],change in absorbance relative to blank (competition for PB-1 binding) (PB-1 antibody),capture of singlet oxygen generated by GAL691 and light irradiation [2]
CC(=O)NC(CCCCNCc1cc(O)c[n+](CCCCC(NC(C)=O)C(=O)O)c1)C(=O)O (stereo not drawn) [Lys-hydroxy-triosidine],no reduction in absorbance was observed,no reduction in absorbance was observed,–
CC1=C(/C=C/C(C)=C/C=C/C(C)=C/C=C/C=C(C)/C=C/C=C(C)/C=C/C2=C(C)C(=O)[C@@H](O)CC2(C)C)C(C)(C)C[C@H](O)C1=O [astaxanthin],–,–,captured
